In patent publication US6441049B2, “Method of treating neurodegenerative disorders via inhibition of amyloid beta peptide binding” (Ortho-McNeil Pharmaceutical, Inc., priority 1998, dated 2002):
Where two headings read alike, the source gives them in different places. Bridge positions count the residues as written; N and C are the ends.

Assays:
[1] = target: 206-216 stretch of the human α7 nAChR (Homo sapiens, UniProt P36544); settings: for % α7 nAChR 206-216 Binding: inhibitors 1 uM to 10 uM
Description: A 2-5 ug quantity of the 11 amino acid peptide comprised of the 206-216 stretch of the α7 nAChR (N-Ac, C(O)NH2) are added to a 96-well microtiter plate in 50 mL 10 mM HEPES, pH 7.4, or any buffer 50 ul. ^125I-β-amyloid1-40 (2000 Ci/mmol, 50 pM) was added to the wells in the presence and absence of inhibitors (1 uM to 10 uM) dissolved in 1 uL of 30% or 100% DMSO. Unbound ligands were removed and bound radioactivity was measured using a Microbeta liquid scintillation counter.

[2] = test system: Aβ1-42 mediated inhibition of ACh release in rat cortical synaptosomes; assay: Amelioration of the Aβ1-42 mediated inhibition of ACh release in rat cortical synaptosomes; assay type: cell-based
[3] = test system: acetylcholine release from guinea pig hippocampus synaptosomes; assay: K+-evoked 3H-acetylcholine release from synaptosomes, effect of Aβs; assay type: cell-based
Description: Synaptosomes from guinea pig hippocampus were incubated with 0.1 μM ^3H-choline and then subjected to repeated washes to remove unincorporated ^3H-choline. The synaptosomes were treated with 65 mM K^+ for 30 seconds to elicit 3H-acetylcholine release.

Aβ aggregation [4] = target: T1, Aβ aggregation (Homo sapiens, UniProt P05067); assay: Aβ aggregation assay on Synthaloid plates with labelled Aβ1-40; assay type: biochemical
T1 construct: 100 nM of fluo-Aβ1-40 in 100 μl of each well of the 96-well Synthaloid plate; purchased Amersham Pharmacia Biotech (125I-Aβ1-40); Advanced Bioconcepts (fluo-Aβ1-40)
T1 sequence (P05067 672-711 limits assumed): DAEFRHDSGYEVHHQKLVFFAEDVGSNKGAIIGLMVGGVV
Description: Aβs are known to form aggregates leading to the formation of amyloid plaques that are characteristic of Alzheimer's disease. […] We have validated this aggregation assay using both ^125I-Aβ1-40 and fluo-Aβ1-40 in a buffer containing 50 mM HEPES, pH 7.4, 0.1% BSA, 10% FCS and protease inhibitors. About 500 pM of ^125I-Aβ1-40 or 100 nM of fluo-Aβ1-40 in 100 μl of each well of the 96-well Synthaloid plate was allowed to incubate for 2.5 hr at room temperature in the presence or absence of inhibitors. At the end of the incubation, unbound protein in the wells was removed by three washes using the above buffer. The amount of bound protein which represented Aβ aggregation was measured either by scintillation counting or fluorescence measurements.

[5] = target: T2, alpha-7 nAChRs (Homo sapiens); assay: 125I-Aβ1-40 binding to alpha-7 nAChRs (SK-N-MC cell membranes) on wheat germ agglutinin SPA beads; settings: read-out: IC50, inhibition of 125I-Aβ1-40 binding to SK-N-MC cells
T2 construct: alpha-7 nAChR contained SK-N-MC cell membranes were immobilized; endogenous in cells; host or cells: SK-N-MC cell membranes
T2 sequence (P05067 672-711): as the sequence (P05067 672-711 limits assumed) above
Description: Alpha-7 nAChRs were immobilized on wheat germ agglutinin coupled yittrium SPA beads and allowed to incubate with ^125I-Aβ1-40 in the presence of various concentrations of cold Aβ1-40 or Aβ1-42.

Aβ aggregation [6] = target: T1, Aβ aggregation; assay: Aβ aggregation assay on Synthaloid plates with labelled Aβ1-40; assay type: biochemical; remark: listed apart in the source
[7] = target: α7 subtype nAChR homomers (Homo sapiens, UniProt P36544); settings: cited from earlier work
Chain of α7 subtype nAChR homomers (P36544 23-502): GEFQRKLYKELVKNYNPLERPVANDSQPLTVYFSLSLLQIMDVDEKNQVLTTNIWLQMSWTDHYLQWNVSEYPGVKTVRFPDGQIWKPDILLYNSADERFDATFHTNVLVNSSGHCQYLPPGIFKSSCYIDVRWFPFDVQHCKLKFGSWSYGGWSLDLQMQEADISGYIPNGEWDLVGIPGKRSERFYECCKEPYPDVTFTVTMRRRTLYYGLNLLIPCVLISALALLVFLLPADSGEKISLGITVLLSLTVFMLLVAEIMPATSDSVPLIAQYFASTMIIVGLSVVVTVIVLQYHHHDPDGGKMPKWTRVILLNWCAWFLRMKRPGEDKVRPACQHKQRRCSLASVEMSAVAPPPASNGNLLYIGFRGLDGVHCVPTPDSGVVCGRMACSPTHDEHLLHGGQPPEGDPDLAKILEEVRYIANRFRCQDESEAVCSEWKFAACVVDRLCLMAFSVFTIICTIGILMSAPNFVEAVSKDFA

Molecule	Inhibition of ligand binding to the 206-216 peptide [1]	Amelioration of the Aβ1-42 Meditated Inhibition of ACh Release in Rat Cortical Synaptosomes (%) ([2]; at 1 μM) [% at 1 μM]	Amelioration of the Aβ1-42 Meditated Inhibition of ACh Release in Rat Cortical Synaptosomes (%) ([2]; at 10 μM) [% at 10 μM]	also measured
Ac-SERFYECCKEP-NH2 [human alpha-7 nAChR206-216 Ac-SERFYECCKEP-NH2] (cysteine pairing not given here)	inhibited	77	81	–
CCCN(CCC)[C@@H]1Cc2c(O)ccc(O)c2C[C@H]1C (racemic) [Compound 9, 5,8-Dihydroxy-trans-2-di(N-propylamino)-3-methyl-1,2,3,4-tetrahydronaphthalene]	inhibited	–	–	Effect on acetylcholine release of Aβ after pretreatment with compound ([3]; 10 nM compound and 100 pM of either Aβ1-40 and Aβ1-42 prior to K+ stimulation): no effect on acetylcholine release; % ACh Release at 10 μM [3]: 94%; IC50 ([3]; Cavia porcellus, read-out: ACh Release (IC50)): 100 nM; % α7 nAChR 206-216 Binding ([1]; […]): 94%; inhibition at 10 µM (Aβ aggregation [4]; 10 μM, read-out: % Inh Agg. (conc μM)): > 90%; IC50 (Aβ aggregation [4]; Synthaloid plate, 2.5 hr, room temperature, read-out: IC50, inhibition of Aβ aggregation): 10 nM; IC50 [5]: 0.3 nM; Effect of prolonged incubation on amyloid aggregates (time course) (Aβ aggregation [6]): resulted in disaggregation
Ac-GIPGKRSERFYECCK-NH2 (cysteine pairing not given here) [human alpha-7 nAChR200-214, peptide stretch of the human alpha-7 nAChR]	–	71	79	–
α-bungarotoxin [reference compound]	inhibited	–	–	Kd [7]: 0.65 to 1.7 nM
Ac-YECC-NH2 [human alpha-7 nAChR210-213]	–	59	72	–
Ac-SERFYECCKEP-NH2 [human alpha-7 nAChR206-216 oxidized (cyclic) CC: Ac-SERFYECC] (disulfide 7-8 (inferred)) [206-216 peptide with oxidized (cyclic) CC]	–	82	84	–
SERFYECCKEP [206-216 peptide without Ac and NH2 end groups]	–	10	22	–
CCCN(CCC)C1Cc2c(OC(=O)C(C)(C)C)ccc(O)c2CC1C (stereo not shown) [Compound 51]	–	–	–	% ACh Release at 10 μM [3]: 54%; % α7 nAChR 206-216 Binding ([1]; 125I-β-amyloid1-40 50 pM): 0%; % Inh Agg. (conc μM) (Aβ aggregation [4]; 10 μM): 30-50 (10) %
